Experimental data published in BigSolDB 2.1.

In the case of `CC1CCC(=O)C1=O` (stereo unspecified), the solubility (mole fraction) (in 1,2-dichloroethane, 278.15 K) is reported as 0.0554, the solubility (mole fraction) (in 1,2-dichloroethane, 283.15 K) is reported as 0.0773 and the solubility (mole fraction) (in 1,2-dichloroethane, 288.15 K) is reported as 0.0992. The solubility (mole fraction) (in 1,2-dichloroethane, 293.15 K) was 0.122, the solubility (mole fraction) (in 1,2-dichloroethane, 298.15 K) was 0.153 and the solubility (mole fraction) (in 1,2-dichloroethane, 303.15 K) was 0.184. The solubility (mole fraction) (in 1,2-dichloroethane, 308.15 K) was 0.215, the solubility (mole fraction) (in 1,2-dichloroethane, 313.15 K) was 0.254 and the solubility (mole fraction) (in acetone, 278.15 K) was 0.0937. The solubility (mole fraction) (in acetone, 283.15 K) was 0.105, the solubility (mole fraction) (in acetone, 288.15 K) was 0.133 and the solubility (mole fraction) (in acetone, 293.15 K) was 0.152. For the same compound, the solubility (mole fraction) (in acetone, 298.15 K) was 0.182, the solubility (mole fraction) (in acetone, 303.15 K) was 0.221 and the solubility (mole fraction) (in acetone, 308.15 K) was 0.255. The solubility (mole fraction) (in acetone, 313.15 K) was 0.298, the solubility (mole fraction) (in acetonitrile, 278.15 K) was 0.0331 and the solubility (mole fraction) (in acetonitrile, 283.15 K) was 0.0519. For the same compound, the solubility (mole fraction) (in acetonitrile, 288.15 K) was 0.0657, the solubility (mole fraction) (in acetonitrile, 293.15 K) was 0.0823 and the solubility (mole fraction) (in acetonitrile, 298.15 K) was 0.11. It also gave a solubility (mole fraction) (in acetonitrile, 303.15 K) of 0.139, a solubility (mole fraction) (in acetonitrile, 308.15 K) of 0.17 and a solubility (mole fraction) (in acetonitrile, 313.15 K) of 0.204. The solubility (mole fraction) (in dichloromethane, 278.15 K) was 0.103, the solubility (mole fraction) (in dichloromethane, 283.15 K) was 0.123 and the solubility (mole fraction) (in dichloromethane, 288.15 K) was 0.145. It also gave a solubility (mole fraction) (in dichloromethane, 293.15 K) of 0.18, a solubility (mole fraction) (in dichloromethane, 298.15 K) of 0.217 and a solubility (mole fraction) (in dichloromethane, 303.15 K) of 0.251. The solubility (mole fraction) (in dichloromethane, 308.15 K) was 0.292, the solubility (mole fraction) (in dichloromethane, 313.15 K) was 0.333 and the solubility (mole fraction) (in ethanol, 278.15 K) was 0.044. For the same compound, the solubility (mole fraction) (in ethanol, 283.15 K) was 0.0503, the solubility (mole fraction) (in ethanol, 288.15 K) was 0.0645 and the solubility (mole fraction) (in ethanol, 293.15 K) was 0.0752. It also gave a solubility (mole fraction) (in ethanol, 298.15 K) of 0.0939, a solubility (mole fraction) (in ethanol, 303.15 K) of 0.111 and a solubility (mole fraction) (in ethanol, 308.15 K) of 0.145. The solubility (mole fraction) (in ethanol, 313.15 K) was 0.187, the solubility (mole fraction) (in ethyl acetate, 278.15 K) was 0.0482 and the solubility (mole fraction) (in ethyl acetate, 283.15 K) was 0.0574. The solubility (mole fraction) (in ethyl acetate, 288.15 K) was 0.0698, the solubility (mole fraction) (in ethyl acetate, 293.15 K) was 0.094 and the solubility (mole fraction) (in ethyl acetate, 298.15 K) was 0.131. It also gave a solubility (mole fraction) (in ethyl acetate, 303.15 K) of 0.156, a solubility (mole fraction) (in ethyl acetate, 308.15 K) of 0.203 and a solubility (mole fraction) (in ethyl acetate, 313.15 K) of 0.251. For the same compound, the solubility (mole fraction) (in ethyl formate, 278.15 K) was 0.0504, the solubility (mole fraction) (in ethyl formate, 283.15 K) was 0.0603 and the solubility (mole fraction) (in ethyl formate, 288.15 K) was 0.0707. For the same compound, the solubility (mole fraction) (in ethyl formate, 293.15 K) was 0.0943, the solubility (mole fraction) (in ethyl formate, 298.15 K) was 0.12 and the solubility (mole fraction) (in ethyl formate, 303.15 K) was 0.147. For the same compound, the solubility (mole fraction) (in ethyl formate, 308.15 K) was 0.176, the solubility (mole fraction) (in ethyl formate, 313.15 K) was 0.239 and the solubility (mole fraction) (in isobutanol, 278.15 K) was 0.0394. For the same compound, the solubility (mole fraction) (in isobutanol, 283.15 K) was 0.0467, the solubility (mole fraction) (in isobutanol, 288.15 K) was 0.052 and the solubility (mole fraction) (in isobutanol, 293.15 K) was 0.0701. For the same compound, the solubility (mole fraction) (in isobutanol, 298.15 K) was 0.0866, the solubility (mole fraction) (in isobutanol, 303.15 K) was 0.111 and the solubility (mole fraction) (in isobutanol, 308.15 K) was 0.153. For the same compound, the solubility (mole fraction) (in isobutanol, 313.15 K) was 0.211, the solubility (mole fraction) (in isopropanol, 278.15 K) was 0.0198 and the solubility (mole fraction) (in isopropanol, 283.15 K) was 0.0388. For the same compound, the solubility (mole fraction) (in isopropanol, 288.15 K) was 0.0599, the solubility (mole fraction) (in isopropanol, 293.15 K) was 0.0768 and the solubility (mole fraction) (in isopropanol, 298.15 K) was 0.101. For the same compound, the solubility (mole fraction) (in isopropanol, 303.15 K) was 0.13, the solubility (mole fraction) (in isopropanol, 308.15 K) was 0.165 and the solubility (mole fraction) (in isopropanol, 313.15 K) was 0.207. For the same compound, the solubility (mole fraction) (in methanol, 278.15 K) was 0.0488, the solubility (mole fraction) (in methanol, 283.15 K) was 0.0629 and the solubility (mole fraction) (in methanol, 288.15 K) was 0.0787. It also gave a solubility (mole fraction) (in methanol, 293.15 K) of 0.0966, a solubility (mole fraction) (in methanol, 298.15 K) of 0.119 and a solubility (mole fraction) (in methanol, 303.15 K) of 0.147. For the same compound, the solubility (mole fraction) (in methanol, 308.15 K) was 0.177, the solubility (mole fraction) (in methanol, 313.15 K) was 0.208 and the solubility (mole fraction) (in n-butanol, 278.15 K) was 0.0353. The solubility (mole fraction) (in n-butanol, 283.15 K) was 0.0444, the solubility (mole fraction) (in n-butanol, 288.15 K) was 0.0552 and the solubility (mole fraction) (in n-butanol, 293.15 K) was 0.0693. For the same compound, the solubility (mole fraction) (in n-butanol, 298.15 K) was 0.0858, the solubility (mole fraction) (in n-butanol, 303.15 K) was 0.105 and the solubility (mole fraction) (in n-butanol, 308.15 K) was 0.133. For the same compound, the solubility (mole fraction) (in n-butanol, 313.15 K) was 0.18, the solubility (mole fraction) (in n-propanol, 278.15 K) was 0.0389 and the solubility (mole fraction) (in n-propanol, 283.15 K) was 0.0474. It also gave a solubility (mole fraction) (in n-propanol, 288.15 K) of 0.0581, a solubility (mole fraction) (in n-propanol, 293.15 K) of 0.0731 and a solubility (mole fraction) (in n-propanol, 298.15 K) of 0.0903. It also gave a solubility (mole fraction) (in n-propanol, 303.15 K) of 0.113, a solubility (mole fraction) (in n-propanol, 308.15 K) of 0.141 and a solubility (mole fraction) (in n-propanol, 313.15 K) of 0.202.
